The values that follow come from publication PMC7269337, “Spiro-containing derivatives show antiparasitic activity against Trypanosoma brucei through inhibition of the trypanothione reductase enzyme” (PLoS Neglected Tropical Diseases, 2020).

Series [1] concerns the target T1, TbTR (Trypanosoma brucei brucei, UniProt P39051).
T1 construct: the gene coding for the enzyme (aa 1–492) was codon optimized for the expression in E.coli; made in house; host or cells: E. coli BL21(DE3)
The series can be described thus: TbTR DTNB absorbance assay. The series is classed as biochemical. The procedure: (§1) Compounds from 10 mM stock solutions were transferred to assay plates by acoustic transfer (EDC Biosystems, Milmont, CA). The TbTR luminescent assay was performed in 384-well white plate (Greiner Bio One, Frickenhausen, Germany). The following components were added to the plates to a final volume of 30 μL: 0.1 nM TR, 20 μM NADPH, 10 μM TS2 in 50 mM HEPES (pH 7.4), 40 mM NaCl, 0.01% BSA. After 60 min of incubation at room temperature the residual amount of NADPH was measured by addition of an equal volume of NADPH-Glo as per the manufacturer’s protocol and the luminescent signal was acquired by an EnVision plate reader (PerkinElmer, Waltham, MA). […] After 10 minutes of incubation at room temperature the absorbance signal (412 nm) was detected using the Safire2 plate reader (Tecan, Switzerland). […] Results were analyzed using Prism software (GraphPad, San Diego, CA) and Vortex (Dotmatics, Bioshops Stortford, UK). […]
(§2) L. infantum TR was cloned and purified as previously described.[1] […] After 60 min of incubation at room temperature, an equal volume of NADPH-Glo reagent was added and the luminescent signal was acquired by an EnVision plate reader […]
(§3) after 30 minute (Figure S1) according to the reagent data sheet. […] The absorbance signal (412 nm) was acquired 15 minutes post incubation at room temperature using the plate reader (Safire2, Tecan, Switzerland). […]

The target in series [2] is T2, Leishmania infantum TR (LiTR) (Leishmania infantum, UniProt A4HSF7).
T2 construct: made in house
T2 sequence (A4HSF7 entry or part of it): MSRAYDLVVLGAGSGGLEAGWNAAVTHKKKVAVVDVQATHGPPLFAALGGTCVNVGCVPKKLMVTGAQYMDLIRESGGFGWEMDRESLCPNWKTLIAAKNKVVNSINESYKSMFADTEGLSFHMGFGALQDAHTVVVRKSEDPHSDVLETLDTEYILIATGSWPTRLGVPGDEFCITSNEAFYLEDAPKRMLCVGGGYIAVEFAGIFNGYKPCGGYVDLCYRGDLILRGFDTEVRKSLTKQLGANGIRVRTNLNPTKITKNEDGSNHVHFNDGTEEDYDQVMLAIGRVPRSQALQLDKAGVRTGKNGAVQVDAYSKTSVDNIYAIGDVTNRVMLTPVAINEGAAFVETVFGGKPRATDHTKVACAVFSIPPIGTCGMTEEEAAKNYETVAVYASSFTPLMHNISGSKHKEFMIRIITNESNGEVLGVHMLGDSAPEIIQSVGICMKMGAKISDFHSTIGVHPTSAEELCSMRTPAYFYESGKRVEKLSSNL
The series can be described thus: LiTR luminescent (NADPH-Glo) enzyme assay. Type of series: biochemical. The text has this: S5 Fig. inhibition of Leismania infantum trypanothione reductase (LiTR) by Compound 1. Each experimental point is the average of three replicates.
The following method was used to determine the inhibition of the LiTR activity:
L. infantum TR was cloned and purified as previously described.[1] Bovine serum albumin (BSA), NADPH, auranofin, hGR, oxidized glutathione (GSSG) and DTNB were purchased from Sigma-Aldrich (St. Louis, MO); oxidized trypanothione (TS2) was purchased from Bachem (Bubendorf, Switzerland); the NADPH-Glo kit was purchased from Promega (Madison, WI, U.S.A.). Compounds, dissolved in DMSO, were transferred to 384-well white plates (Greiner Bio One, Frickenhausen, Germany) using the acoustic droplet ejection technology (ATS-100, EDC Biosystems, U.S.A.) to reach the desired final concentration. […] After 60 min of incubation at room temperature, an equal volume of NADPH-Glo reagent was added and the luminescent signal was acquired by an EnVision plate reader […]
after 30 minute (Figure S1) according to the reagent data sheet. […] The absorbance signal (412 nm) was acquired 15 minutes post incubation at room temperature using the plate reader (Safire2, Tecan, Switzerland). Results were analyzed using Prism software (GraphPad, San Diego, CA, U.S.A.) and Vortex (Dotmatics, Bioshops Stortford, UK). […]

Series [3] deals with T3, TbTR (Trypanosoma brucei trypanothione reductase) (Trypanosoma brucei brucei, UniProt P39051).
T3 construct: the gene coding for the enzyme (aa 1–492) was codon optimized for the expression in E.coli; made in house; host or cells: E. coli BL21(DE3)
T3 sequence (P39051 whole entry, the tested form may be a part): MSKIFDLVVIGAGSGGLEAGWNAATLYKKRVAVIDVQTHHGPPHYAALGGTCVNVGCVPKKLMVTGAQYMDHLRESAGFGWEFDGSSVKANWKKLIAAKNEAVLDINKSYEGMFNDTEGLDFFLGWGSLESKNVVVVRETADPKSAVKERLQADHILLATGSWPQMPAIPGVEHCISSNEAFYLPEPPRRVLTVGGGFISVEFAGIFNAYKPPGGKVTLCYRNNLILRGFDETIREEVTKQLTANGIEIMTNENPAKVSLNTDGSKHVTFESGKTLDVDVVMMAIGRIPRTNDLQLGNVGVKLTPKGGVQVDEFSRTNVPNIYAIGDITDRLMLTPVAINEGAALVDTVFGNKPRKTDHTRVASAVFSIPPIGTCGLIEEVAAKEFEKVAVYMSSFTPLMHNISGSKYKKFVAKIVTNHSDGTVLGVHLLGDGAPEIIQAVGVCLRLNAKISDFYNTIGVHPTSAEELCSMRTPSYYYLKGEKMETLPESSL
As to the kind of experiment: TbTR luminescent (NADPH-Glo) enzyme assay. The series is classed as biochemical. The procedure: Compounds from 10 mM stock solutions were transferred to assay plates by acoustic transfer (EDC Biosystems, Milmont, CA). The TbTR luminescent assay was performed in 384-well white plate (Greiner Bio One, Frickenhausen, Germany). The following components were added to the plates to a final volume of 30 μL: 0.1 nM TR, 20 μM NADPH, 10 μM TS2 in 50 mM HEPES (pH 7.4), 40 mM NaCl, 0.01% BSA. After 60 min of incubation at room temperature the residual amount of NADPH was measured by addition of an equal volume of NADPH-Glo as per the manufacturer’s protocol and the luminescent signal was acquired by an EnVision plate reader (PerkinElmer, Waltham, MA). The DTNB assay was performed in a final volume of 50 μl by addition of 2 nM TR, 100 μM NADPH, 4 μM TS2 and 200 μM DTNB in 40 mM HEPES (pH 7.4), 1 mM EDTA, 0.01% BSA and 0.05% Tween-20. After 10 minutes of incubation at room temperature the absorbance signal (412 nm) was detected using the Safire2 plate reader (Tecan, Switzerland). The human glutathione reductase (hGR) activity assay was carried out as described by Turcano et al.[23]. Results were analyzed using Prism software (GraphPad, San Diego, CA) and Vortex (Dotmatics, Bioshops Stortford, UK). Dose-response curves were fitted by four-parameter logistic regression.
The TbTR enzyme enzyme was produced in bacteria, purified as described in materials and methods and used to develop an in vitro enzyme assay (Fig 1A). To measure TbTR activity, a luminescent assay was optimized starting from a design that we previously described. First we determined the linearity range of the NADPH detection signal via NADPH-Glo kit that was determined to be 50 μM (Fig 1B). The Km (apparent) value for TS2 was calculated using 1 nM TR in the presence of serial dilutions of TS2 and a fixed concentration of 40 μM NADPH. The luminescence signal was detected in the first 10 min of reaction. NADPH depletion, calculated using the NADPH standard curve (Fig 1B), allowed the determination of the apparent Km values by the Michaelis-Menten kinetic (Fig 1C). The Km for TS2 was calculated to be 4.0 ± 0.7 μM. To further optimize the assay, a time course experiment was carried out. Different concentrations of the TbTR enzyme, ranging from 0.025 to 0.2 nM, were used, while the TS2 concentration was fixed near the Km value (5 μM) and the NADPH concentration was 20 μM that falls within the linearity range observed for the NADPH standard curve. 0.1 nM TbTR at and 60 min of incubation were judged to be an optimal compromise for preserving the reaction linearity along with a good signal to background ratio (Fig 1D) and allowing a suitable time for the screening operations. The final conditions used for the screening were: 0.1 nM TbTR, 5 μM TS2, 20 μM NADPH with the incubation time of the reaction being 60 minutes.

Series [4] concerns the target T1, TbTR. As to the kind of experiment: SPR binding assay on immobilized TbTR. The procedure:
Surface Plasmon resonance (SPR) interaction analysis were performed using a Biacore T200 (GE Healthcare, Uppsala, Sweden). TbTR was immobilized on a CM4 chip by amine coupling according to manufacturer’s instructions (Amine Coupling Kit, GE Healthcare, Uppsala, Sweden). Briefly, the surface of the sensor chip was activated for 7 minutes using a mixture of 0.1 M N-hydroxy succinimide (NHS) and 0.4 M N-ethyl-N’-[3-dimethyl-aminopropyl] carbodiimide (EDC) then 30 μg/ml of […] in 10 mM sodium acetate (pH 4.5) was injected for 360 s at 10 μl/min, finally residual activated groups on the surface were blocked by a 7 min injection of 1 M ethanolamine (pH 8.5). A reference channel for background subtraction was prepared by activation with EDC/NHS mixture (0.1 M/0.4 M as per ligand immobilization), followed by blocking with 1 M ethanolamine. The binding of the selected hit to the immobilized ligand was evaluated by a multi-cycle kinetic procedure in PBS-P (GE Healthcare Lifescience) supplemented with 2% DMSO (Sigma Aldrich). The analyte was injected for 60 s at 50 μl/min until equilibrium and dissociation monitored for 600 s. A standard curve of DMSO was included for solvent correction.
Biomolecular binding events were reported as changes of resonance units (RUs) over time. The data were analyzed by the Biacore T200 evaluation software. The sensorgrams were obtained, by subtracting the signals of the reference channel to those of the TbTR-immobilized one, and corrected for DMSO interference using the DMSO standard curve. The binding affinity was evaluated from kinetic parameters (koff/kon) calculated according to a heterogeneous ligand binding model.
(In general: Surface plasmon resonance follows binding to a sensor surface in real time, without labels.)

In a further series the test system is T. brucei parasites. As to the kind of experiment: T. brucei growth inhibition assay (CellTiter-Glo). Type of series: cell-based. Particulars: Trypanosoma brucei, 24 h treatment, read-out: IC50, anti-proliferative activity on T. brucei culture. The procedure: The anti-proliferative effect of testing compounds on T. brucei in vitro cultures was carried out by incubating compounds with 1.5 × 10^3 parasite per well followed by 24 incubation at 37°C and 5% CO2. The parasite viability was measured by CellTiter-Glo according to the manufacturer's instructions.
On the technique in general: Cellular ATP, detected with luciferase, serves as a proxy for viable cell number.

The target of series [5] is T1, TbTR. The series can be described thus: TS2 competition assay (TbTR luminescent assay). The series is classed as biochemical. The following applies: 5 or 25 μM compound. The procedure: Competition experiments were performed at two different compound concentrations (5 μM and 25 μM) by TbTR luminescent assay. The apparent Km values for TS2 in presence of 20 μM NADPH were calculated using 1 nM TR after 10 min incubation. […] The luminescent signal was measured using the EnVision plate reader (PerkinElmer, USA). IC50, Vmax, and Km values were calculated using Prism software (GraphPad, San Diego, CA).

A short description of a further series: physchem. Type of series: physicochemical. Particulars: pH 7.4, aqueous buffer. The procedure: The solubility testing was carried out as previously reported.
Series [6] deals with endogenous TbTR activity in T. brucei lysate. As to the kind of experiment: T. brucei lysate thiol formation assay. The following applies: 200 μM NADPH, 50 μM TS2, 100 μM DTNB, 30 min, absorbance 412 nm; read-out: IC50, inhibition of endogenous TbTR activity in T. brucei lysate. Type of series: biochemical, Trypanosoma brucei. The procedure: T. brucei parasites were grown on IMDM medium (Iscove’s Modified Dulbecco’s Medium) supplied with 3 gr/L sodium bicarbonate, 136 mg/L hypoxanthine, 39 mg/L thymidine, 28.2 mg/L bathocuprione sulfonic acid, 0.5 mM cysteine, 0.001% β-mercaptoethanol and 10% heat-inactivated Calf serum. 1.5 x 10^6 compound treated parasite per well were lysed using 1 mM EDTA, 40 mM Hepes pH 7.5, 50 mM Tris-HCl pH 7.5, 2% Triton-X100 and protease inhibitors cocktail (Sigma). 200 μM NADPH, 50 μM TS2, 100 μM DTNB were added in each well to trigger the TbTR activity. After 30 min incubation the absorbance signal (412 nm) was detected using the Safire2 plate reader (Tecan, Switzerland).

Series [7] deals with T4, human glutathione reductase (hGR) (Homo sapiens, UniProt P00390).
T4 construct: purchased Sigma-Aldrich
T4 sequence (P00390 44-522): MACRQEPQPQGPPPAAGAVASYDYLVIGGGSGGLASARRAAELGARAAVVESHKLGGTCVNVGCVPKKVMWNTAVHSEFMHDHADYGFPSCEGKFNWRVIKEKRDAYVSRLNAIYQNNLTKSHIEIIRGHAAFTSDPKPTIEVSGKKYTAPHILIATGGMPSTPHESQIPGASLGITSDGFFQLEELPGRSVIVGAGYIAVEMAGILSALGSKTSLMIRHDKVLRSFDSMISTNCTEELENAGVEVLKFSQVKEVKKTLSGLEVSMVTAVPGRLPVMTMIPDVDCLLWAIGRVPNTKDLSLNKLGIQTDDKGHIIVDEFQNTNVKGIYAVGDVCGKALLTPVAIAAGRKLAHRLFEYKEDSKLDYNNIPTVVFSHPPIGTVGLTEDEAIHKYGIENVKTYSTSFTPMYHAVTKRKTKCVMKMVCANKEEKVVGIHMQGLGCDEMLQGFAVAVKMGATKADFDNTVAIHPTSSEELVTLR
As to the kind of experiment: human glutathione reductase (hGR) activity assay. The series is classed as biochemical. The procedure:
as §1, §2, §3

[8] abbreviates: TbTR assay IC50, luminescence assay, n=4, dose-response from 85 μM.

SMILES strings stand for the structures. Values after ≈ are worked out from the molar mass of the structure shown. Where two headings read alike, the source gives them in different places. Where only a bound is given, the exact number is not on record here.

T1 sequence (P39051 whole entry, the tested form may be a part): as the sequence (P39051 whole entry, the tested form may be a part) above

A word on the IC50: it is the concentration needed to halve the response being measured. As usually defined, the Kd is the concentration at which binding is half-saturated. By koff is commonly meant the first-order rate constant of dissociation. As a reminder, the solubility is the concentration that dissolves in the medium under given conditions. For `CN(CCCN1CN(c2ccccc2)C2(CCN(CC[C@@H]3CC[C@H]4C[C@@H]3C4(C)C)CC2)C1=O)CC1(O)CCN(C(=N)N)CC1` [Compound 1, 4-(((3-(8-(2-((1S,2S,5S)-6,6-dimethylbicyclo[3.1.1]heptan-2-yl)ethyl)-4-oxo-1-phenyl-1,3,8-triazaspiro[4.5]decan-3-yl)propyl)(methyl)amino)methyl)-4-hydroxypiperidine-1-carboximidamide], the IC50 at TbTR [1] came to 0.966 ± 0.068 µM; in series [2], 3.8 ± 0.6 µM; in series [3] (TbTR IC50, luminescence assay) it was 3.5 ± 2.2 µM; in series [3] (setting [8]), 3.5 ± 2.19 µM; with T. brucei parasites, 2.2 ± 2.4 µM; in series [6], 5.7 ± 0.6 µM. Further, in series [7], the IC50 was greater than 50 µM. Besides, binding at TbTR [4] was characterised by a dissociation constant (Kd) of 10.3 ± 2.9 µM. The koff at TbTR [4] was determined as 0.035 ± 0.014 s⁻¹. In addition, the “binding to TbTR (reversibility)” value at TbTR [4] (SPR, 0.3125 to 20 μM) was “reversible binding”. The “change in calculated Vmax” value on TbTR [5] is recorded as “No changes”. Also, the “mode of inhibition versus TS2” value at TbTR [5] was “competitive with TS2”. In “physchem”, this molecule returned a solubility of 185 µM (≈ 113 µg/mL). Moreover, the “activity against human glutathione reductase (hGR)” value in [7] is “no activity was detected”.
Regarding `O=C(CCCN1CCC2(CC1)C(=O)NCN2c1ccccc1)c1ccc(F)cc1` [Compound 5, Spiperone, reference compound], in series [3] (luminescence assay, n=4, dose-response from 85 μM, read-out: TbTR assay IC50), the half-inhibitory concentration (IC50) is greater than 85 µM.
In the case of `O=C(CCN1CN(c2ccccc2)C2(CCNCC2)C1=O)NC(c1ccccc1)c1ccccc1` [Compound 18], the IC50 in series [3] (setting [8]) is greater than 85 µM.
